Common to all, as to assay: NCI tumour cell line growth inhibition, 48 h
For assay [1], the system named is DLD-1 colon.
Assay [2] deals with DMS 114 small cell lung.
In assay [3] the test system is DMS 273 small cell lung.
Assay [4] relates to HOP-18 NSCLC.
Assay [5] relates to IGROV1 ovarian.
Assay [6] relates to KM20L2 colon.
Assay [7] has as its system M19-MEL melanoma.
In assay [8] the test system is NCI-H23 lung.
Assay [9] deals with OVCAR-5 ovarian.
Assay [10] has as its system P388 leukemia.
In assay [11] the test system is P388/ADR leukemia.
In assay [12] the test system is SN12K1 renal.
In assay [13] the test system is SNB-78 CNS.
In assay [14] the test system is XF 498 CNS.
For assay [15], the system named is LXFL 529 NSCLC.
Assay [16] concerns RXF-631 renal.
The subject of assay [17] is BT-549 breast.
In assay [18] the test system is MDA-MB-435.

The structures appear in SMILES notation.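 All cell lines were grown in 96-well plates and treated with compound for 48 hours. TGI denotes the concentration required for complete inhibition of growth.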

On to `CN1CCN(P2(=S)Oc3ccc4ccccc4c3-c3c(ccc4ccccc34)O2)CC1`, for which the TGI in [1] is > 100 µM; in assay [2] it was > 100 µM; in [3], 73 µM; in [4], > 100 µM; in assay [5], > 100 µM; in [6], > 61.7 µM. Also, the TGI is > 100 µM in assay [7]; > 100 µM in assay [8]; > 100 µM in assay [9]; > 68 µM in [10]; > 95.5 µM in [11]; 56.9 µM in assay [12]. The TGI in assay [13] is > 100 µM; in assay [14], 67.3 µM.

In the case of `O=C1N[C@@H]2C(=C[C@H](O)[C@@H](O)[C@H]2O)c2cc3c(c(O)c21)OCO3`, the TGI in assay [1] came to 0.0751 µM; in assay [3], 0.145 µM; in assay [4], 0.281 µM; in assay [5], 0.151 µM; in assay [6], 0.315 µM; in assay [7], 0.0771 µM. In addition, the TGI in assay [8] came to 0.129 µM; in assay [9] it was 0.294 µM; in assay [10], 0.969 µM; in [11], 0.45 µM; in [12], 0.1 µM; in [13], 0.399 µM. The molecule also yielded a TGI in [14] of 0.0541 µM.

Consider `CCOC(=O)c1c[nH]c2ccc3c(c2c1=O)S(=O)(=O)CC3` (tested in a mixture with another compound), for which the TGI in assay [1], in assay [2], in assay [3], in assay [4], in [5] and in assay [6] was > 100 µM throughout. In addition, the TGI in [7], in assay [8], in [9], in assay [10], in assay [11] and in [12] was > 100 µM in each case. Further, the TGI in [13] and in assay [14] was > 100 µM each time.

Consider `O=C1CCCC/C1=C\c1ccc(Cl)c(Cl)c1`, for which the TGI came out at 61.6 µM in assay [1]; 41.1 µM in [2]; 38.5 µM in [3]; 51.7 µM in assay [4]; 61.7 µM in [5]; 40.9 µM in assay [6]. Also, the TGI in assay [15] is 31.2 µM; in assay [7], 40.3 µM; in [8], 71.3 µM; in [13], 52.7 µM.

Turning to `CCCCCCCCCCCC[N+](CCCCCCCCCCCC)=C1SCCS1`, the TGI in assay [1] came to 21.2 µM; in assay [2], 3.58 µM; in [3], 11.4 µM; in [4], 30 µM; in [5], 23.4 µM; in [6], 18.4 µM. The TGI was found to be 14 µM in assay [15]; 8.43 µM in [7]; 9.05 µM in assay [8]; 25.1 µM in assay [9]; 52.2 µM in assay [16]; 14.6 µM in assay [13].

With `COC(=O)C(=O)Cc1nc2ccccc2o1`, the TGI in [1], in [2], in [15], in assay [7], in assay [8] and in assay [9] was > 100 µM each time. Further, the TGI in assay [16], in assay [13] and in [14] was > 100 µM in each case.

Turning to `O=NN(CCF)C(=O)NC1CCSCC1`, the TGI in assay [1], in [2], in [3], in assay [4], in [5] and in assay [6] was > 100 µM throughout. Besides, the TGI in assay [7], in [8], in [9], in [10], in assay [11] and in assay [12] was > 100 µM in each case. Moreover, the TGI in assay [13] was > 100 µM.

Turning to `CO/N=C1/c2sccc2[C@H](NC(=O)C(Cc2ccccc2)NC(=O)OC(C)(C)C)[C@@H]1O` (some centres undefined), the TGI in assay [17], in assay [5], in [18], in assay [8] and in assay [9] was > 100 µM throughout.

As for `CCOC(=O)C1CCCCN1C(=O)Cc1c[nH]c2ccccc12` (centres undefined), the TGI in assay [17], in assay [5], in assay [18], in assay [8] and in assay [9] was > 100 µM in each case.

With `Cc1cc(NS(=O)(=O)c2ccc(NC(=O)c3cccc4c(Nc5ccc(S(N)(=O)=O)cc5)c5ccccc5nc34)cc2)no1`, the TGI in [1], in assay [2], in assay [15], in assay [7], in assay [8] and in assay [9] was > 100 µM each time. Moreover, the TGI in assay [16], in assay [13] and in assay [14] was > 100 µM throughout.

With `Cn1c(=O)n2n(c1=O)C(C)(C13CC4CC(CC(C4)C1)C3)C13CC4CC(CC1C4)CC23` (centres undefined), the TGI in [17], in assay [5], in assay [18], in assay [8] and in [9] was > 100 µM each time.

For the molecule `COc1cccc(/N=N/C(=NNC(=O)c2ccc(C)cc2)c2ccc(N(C)C)cc2)c1`, the TGI in [17], in assay [5], in assay [18], in [8] and in assay [9] was > 100 µM in each case.

As for `CC(C)/C(Cl)=N/OC(=O)Nc1ccc(Cl)c(Cl)c1`, the TGI in assay [17] came to 9.62 µM; in assay [5], 26.4 µM; in [18] it was 15.7 µM; in assay [8], 29.5 µM; in assay [9] it was 30.2 µM.

For the molecule `CCC1C(c2ccccc2O)c2cc3c(cc2OC1N1CCOCC1)OCO3` (centres undefined), the TGI in assay [17] came out at 29.3 µM; in assay [5], 32.3 µM; in assay [18], 28.9 µM; in assay [8] it was 34.5 µM; in [9] it was 28.7 µM.

`CN1CCN(c2ccc3c(c2)NCC(=O)N3)CC1`: the TGI in assay [17], in assay [5], in assay [18], in assay [8] and in assay [9] was > 100 µM throughout.

Take `Cc1cc2c(cc1C)[n+](=O)c(C(=O)c1ccccc1)c(C(F)(F)F)n2[O-]`: the TGI was found to be 23.9 µM in assay [17]; 4.02 µM in assay [5]; 11.2 µM in assay [18]; 6.78 µM in assay [8]; 10.2 µM in [9].

In the case of `CCOC(=O)Cn1nnc2ccc(Nc3nc4ccccc4nc3-c3ccccc3)cc21`, the TGI in [17], in assay [5], in [18], in assay [8] and in assay [9] was > 100 µM throughout.
